Source: ChEMBL document CHEMBL3045744, “Effect of pyriproxyfen, a juvenile hormone mimic, on egg hatch, nymph development, adult emergence and reproduction of the Asian citrus psyllid, Diaphorina citri Kuwayama” (2010)
≈ marks a conversion by molar mass, not a printed value. Calls of active or inactive are those of the source. No cut-off for these calls is given here.

Tests used:
Diaphorina citri [1] = experiment: Ovicidal activity against Diaphorina citri in 2 to 3 months old citrus plant assessed as inhibition of old egg hatch at 64 ug/mL by residual contact bioassay; assay type: functional
Diaphorina citri [2] = experiment: Ovicidal activity against Diaphorina citri in 2 to 3 months old citrus plant assessed as inhibition of old egg hatch at 128 ug/mL by leaf dip bioassay; assay type: functional; conditions: foliar
Diaphorina citri [3] = experiment: Ovicidal activity against Diaphorina citri in 2 to 3 months old citrus plant assessed as inhibition of old egg hatch at 4 to 8 ug/mL by leaf dip bioassay; assay type: functional, organism-based
Diaphorina citri [4] = experiment: Ovicidal activity against Diaphorina citri in 2 to 3 months old citrus plant assessed as inhibition of egg hatch measured 0 to 48 hr prior egg laying by residual contact bioassay; assay type: functional
Diaphorina citri [5] = experiment: Ovicidal activity against Diaphorina citri in 2 to 3 months old citrus plant assessed as inhibition of egg hatch measured 49 to 96 hr after egg laying by leaf dip bioassay; assay type: functional
Diaphorina citri [6] = experiment: Ovicidal activity against Diaphorina citri in 2 to 3 months old citrus plant assessed as inhibition of egg hatch measured 0 to 48 hr after egg laying by leaf dip bioassay; assay type: functional
Diaphorina citri [7] = experiment: Inhibition of reproduction in fifth-instar nymphs of Diaphorina citri in flush of citrus plants assessed as fecundity of egg at 100 ug/ml measured 0 to 3 days after emergence; assay type: functional, organism-based
Diaphorina citri [8] = experiment: Inhibition of reproduction in fifth-instar nymphs of Diaphorina citri in flush of citrus plants assessed as viability of egg at 100 ug/ml applied topically; assay type: functional, organism-based
Diaphorina citri [9] = experiment: Inhibition of reproduction in fifth-instar nymphs of Diaphorina citri in flush of citrus plants assessed as fecundity of egg at 100 ug/ml applied topically; assay type: functional, organism-based
Diaphorina citri [10] = experiment: Insecticidal activity against Diaphorina citri assessed as mortality at 100 ug/ml applied topically; assay type: functional, organism-based
Diaphorina citri [11] = experiment: Inhibition of reproduction in fifth-instar nymphs of Diaphorina citri in flush of citrus plants assessed as viability of egg at 64 ug/ml measured 10 to 12 days after emergence relative to control; assay type: functional, organism-based
Diaphorina citri [12] = experiment: Inhibition of reproduction in fifth-instar nymphs of Diaphorina citri in flush of citrus plants assessed as viability of egg at 64 ug/ml measured 7 to 9 days after emergence relative to control; assay type: functional
Diaphorina citri [13] = experiment: Inhibition of reproduction in fifth-instar nymphs of Diaphorina citri in flush of citrus plants assessed as viability of egg at 64 ug/ml measured 4 to 6 days after emergence relative to control; assay type: functional
Diaphorina citri [14] = experiment: Inhibition of reproduction in fifth-instar nymphs of Diaphorina citri in flush of citrus plants assessed as viability of egg at 32 to 64 ug/ml measured 0 to 3 days after emergence relative to control; assay type: functional
Diaphorina citri [15] = experiment: Inhibition of reproduction in fifth-instar nymphs of Diaphorina citri in flush of citrus plants assessed as fecundity of egg at 32 to 64 ug/ml measured 7 to 12 days after emergence relative to control; assay type: functional, organism-based
Diaphorina citri [16] = experiment: Inhibition of reproduction in fifth-instar nymphs of Diaphorina citri in flush of citrus plants assessed as fecundity of egg at 32 to 64 ug/ml measured 4 to 6 days after emergence relative to control; assay type: functional; design: scale not given: the % may be the effect or the level left
Diaphorina citri [17] = experiment: Inhibition of reproduction in fifth-instar nymphs of Diaphorina citri in flush of citrus plants assessed as fecundity of egg at 32 to 64 ug/ml measured 0 to 3 days after emergence relative to control; assay type: functional; design: scale not given: the % may be the effect or the level left
Diaphorina citri [18] = experiment: Induction of morphological abnormalities of fourth and fifth-instar nymphs of Diaphorina citri in flush of citrus plants at 32 to 64 ug/ml after 48 hr; assay type: functional, organism-based
Diaphorina citri [19] = experiment: Inhibition of reproduction in fifth-instar nymphs of Diaphorina citri in flush of citrus plants assessed as fecundity of egg at 100 ug/ml measured 4 to 6 days after emergence; assay type: functional, organism-based
Diaphorina citri [20] = experiment: Inhibition of reproduction in fifth-instar nymphs of Diaphorina citri in flush of citrus plants assessed as viability of egg at 100 ug/ml measured 4 to 6 days after emergence; assay type: functional, organism-based
Diaphorina citri [21] = experiment: Insecticidal activity against fourth-instar nymphs of Diaphorina citri nymph in flush of citrus plants assessed as mortality measured on fifth-instar stage after 48 hr; assay type: functional
Diaphorina citri [22] = experiment: Insecticidal activity against fifth-instar nymphs of Diaphorina citri nymph in flush of citrus plants assessed as mortality measured on fifth-instar stage after 48 hr; assay type: functional
Diaphorina citri [23] = experiment: Insecticidal activity against third- instar nymphs of Diaphorina citri nymph in flush of citrus plants assessed as mortality measured on fourth-instar stage after 48 hr; assay type: functional
Diaphorina citri [24] = experiment: Insecticidal activity against second-instar nymphs of Diaphorina citri nymph in flush of citrus plants assessed as mortality measured on third-instar stage after 48 hr; assay type: functional
Diaphorina citri [25] = experiment: Insecticidal activity against first-instar nymphs of Diaphorina citri nymph in flush of citrus plants assessed as mortality measured on second-instar stage after 48 hr; assay type: functional
Diaphorina citri [26] = experiment: Inhibition of reproduction in fifth-instar nymphs of Diaphorina citri in flush of citrus plants assessed as viability of egg at 100 ug/ml measured 7 to 12 days after emergence; assay type: functional, organism-based
Diaphorina citri [27] = experiment: Inhibition of reproduction in fifth-instar nymphs of Diaphorina citri in flush of citrus plants assessed as fecundity of egg at 100 ug/ml measured 7 to 12 days after emergence; assay type: functional, organism-based
Diaphorina citri [28] = experiment: Inhibition of reproduction in fifth-instar nymphs of Diaphorina citri in flush of citrus plants assessed as viability of egg at 100 ug/ml measured 0 to 3 days after emergence; assay type: functional, organism-based

Compound: CC(COc1ccc(Oc2ccccc2)cc1)Oc1ccccn1 (stereo unspecified) [PYRIPROXYFEN]
- inhibition at 64 µg/mL (Diaphorina citri [1]): 70%
- inhibition at 128 µg/mL (Diaphorina citri [2]): > 90%
- inhibition (Diaphorina citri [3]): Active
- LC50 (Diaphorina citri [4]): 32.4 µg/mL (≈ 101 µM)
- inhibition (Diaphorina citri [4]): Dose-dependent effect
- inhibition (Diaphorina citri [5]): Dose-dependent effect
- LC50 (Diaphorina citri [5]; foliar): 37 µg/mL (≈ 115 µM)
- inhibition (Diaphorina citri [6]): Dose-dependent effect
- LC50 (Diaphorina citri [6]; foliar): 18.4 µg/mL (≈ 57.4 µM)
- Activity (Diaphorina citri [7]): inactive
- Activity (Diaphorina citri [8]): Active
- Activity (Diaphorina citri [9]): Active
- Activity (Diaphorina citri [10]): inactive
- Activity (Diaphorina citri [11]): inactive
- Activity (Diaphorina citri [12]): 83%
- Activity (Diaphorina citri [13]): 59%
- Activity (Diaphorina citri [14]): 69%
- Activity (Diaphorina citri [15]): inactive
- Activity (Diaphorina citri [16]): 64%
- Activity (Diaphorina citri [17]): 58%
- Activity (Diaphorina citri [18]): Active
- Activity (Diaphorina citri [19]): Active
- Activity (Diaphorina citri [20]): Active
- LC50 (Diaphorina citri [21]): 44.3 µg/mL (≈ 138 µM)
- LC50 (Diaphorina citri [22]): 51.3 µg/mL (≈ 160 µM)
- LC50 (Diaphorina citri [23]): 25.2 µg/mL (≈ 78.6 µM)
- LC50 (Diaphorina citri [24]): 21.6 µg/mL (≈ 67.1 µM)
- LC50 (Diaphorina citri [25]): 17.6 µg/mL (≈ 54.8 µM)
- Activity (Diaphorina citri [26]): inactive
- Activity (Diaphorina citri [27]): inactive
- Activity (Diaphorina citri [28]): Active
